According to PMC2766634 (Journal of medicinal chemistry, 2009):
Several values for one entry are separate records, joined by “and”; a condition that tells them apart may be missing. Equal entries are not always repeated. Marks after values point to notes of the source that are not given here.

Experiments:
[1] = Cyclic voltammetry in DMSO; type: physicochemical; settings: for E1/2 in DMSO (half-wave potential, 0/−1 reduction), mean ± SE: cyclic voltammetry, 0.10 M NBu4PF6 in DMSO, 25 °C, 100 mV/s; for E1/2 more positive than Mz: in DMSO, relative to Mz
[2] = Cyclic voltammetry in water pH 7.0; type: physicochemical; settings: pH 7.0 phosphate buffer, 0.1 M KCl, 25 °C
[3] = test system: G. lamblia (WB/C6, GS/M, 106, and 713); test: Antigiardial growth inhibition; type: cell-based, Giardia lamblia; settings: for selectivity ratio, IC50/EC50: IC50 in HeLa cells / EC50 in Giardia
HeLa cells = test: Cytotoxicity assay; type: cell-based, human; settings: for IC50: Homo sapiens, HeLa, 48 h, read-out: toxicity in HeLa cells, pIC50 (mean ± SE) (converted)
G. lamblia GS/M = test: Murine G. lamblia infection model; type: in vivo, Giardia lamblia in C57BL/6 mice; settings: mice, five doses over 3 days; for effect on infection (trophozoites in small intestine) at 2 mg/kg: 2 mg/kg oral gavage; for effect on infection (trophozoites in small intestine) at 10 mg/kg: 10 mg/kg oral gavage

Molecule	E1/2 in DMSO (half-wave potential, 0/−1 reduction), mean ± SE [1]	Ep in water (peak potential), mean ± SE [2] [V vs SCE]	other results
2-[(E)-2-(3a,7a-Dihydro-1,3-benzodioxol-5-yl)vinyl]-1-methyl-5-nitro-1H-imidazole [compound 27]	−1.584 ± 0.001 V vs Fc	−0.778 ± 0.002	selectivity ratio, IC50/EC50 [3]: 1,072; Activity against G. lamblia pEC50 (mean ± SE) ([3]; mean ± SE of average pEC50 of four isolates (WB/C6, GS/M, 106, 713)): 7.16 ± 0.34; toxicity in HeLa cells, pIC50 (mean ± SE) (HeLa cells; 2 days culture, three separate experiments): 4.13 ± 0.10
Cn1cncc1[N+](=O)[O-] [1-methyl-5-NI, reference compound]	−1.557 V vs Fc and −1.557 ± 0.001 V vs Fc		
Cc1ncc([N+](=O)[O-])n1CCO [Mz, metronidazole, reference compound]			effect on infection (trophozoites in small intestine) at 2 mg/kg (G. lamblia GS/M): no significant effect; effect on infection (trophozoites in small intestine) at 10 mg/kg (G. lamblia GS/M): not parasite eradication
Cc1ccc(C(Br)C(Br)c2ncc([N+](=O)[O-])n2C)cc1 (stereo not shown) [compound 3, reference compound]	−1.489 ^d ± 0.001 V vs Fc		increased antigiardial activity over Mz ([3]; relative to Mz): 40 fold; selectivity ratio lower than that of Mz ([3]; relative to Mz): > 10 fold; more toxic than Mz in HeLa (HeLa cells; relative to Mz): > 500 fold
Cn1c([N+](=O)[O-])cnc1/C=C/c1ccccc1 [compound 5, 1-Methyl-5-nitro-2-[(E)-2-phenylvinyl]-1H-imidazole]	−1.517 ± 0.001 V vs Fc	−0.634 ± 0.004	E1/2 more positive than Mz [1]: 30–50 mV; effect on infection (trophozoites in small intestine) at 10 mg/kg (G. lamblia GS/M): complete clearance of the infection
Cc1ccccc1/C=C/c1ncc([N+](=O)[O-])n1C [compound 6, 1-Methyl-2-[(E)-2-(2-methylphenyl)vinyl]-5-nitro-1H-imidazole]	−1.512 ± 0.001 V vs Fc	−0.621 ± 0.001	IC50 (HeLa cells): 93.3 µM
Cc1cccc(/C=C/c2ncc([N+](=O)[O-])n2C)c1 [compound 7, 1-Methyl-2-[(E)-2-(3-methylphenyl)vinyl]-5-nitro-1H-imidazole]	−1.516 ± 0.001 V vs Fc	−0.635 ± 0.003	
Cc1ccc(/C=C/c2ncc([N+](=O)[O-])n2C)cc1 [compound 8, 1-Methyl-2-[(E)-2-(4-methylphenyl)vinyl]-5-nitro-1H-imidazole]	−1.522 ± 0.003 V vs Fc		selectivity ratio, IC50/EC50 [3]: >617
Cc1cc(C)c(/C=C/c2ncc([N+](=O)[O-])n2C)c(C)c1 [compound 9, 1-Methyl-2-[(E)-2-(2,4,6-trimethylphenyl)vinyl]-5-nitro-1H-imidazole]	−1.529 ± 0.001 V vs Fc		E1/2 more positive than Mz [1]: 30–50 mV; IC50 (HeLa cells): 11 µM
Cn1c([N+](=O)[O-])cnc1/C=C/c1ccccc1Br [compound 10, 2-[(E)-2-(2-Bromophenyl)vinyl]-1-methyl-5-nitro-1H-imidazole]	−1.481 ± 0.001 V vs Fc		
Cn1c([N+](=O)[O-])cnc1/C=C/c1cccc(Br)c1 [compound 11, 2-[(E)-2-(3-Bromophenyl)vinyl]-1-methyl-5-nitro-1H-imidazole]	−1.497 ± 0.005 V vs Fc		
Cn1c([N+](=O)[O-])cnc1/C=C/c1ccc(Br)cc1 [compound 12, 2-[(E)-2-(4-Bromophenyl)vinyl]-1-methyl-5-nitro-1H-imidazole]	−1.506 ± 0.002 V vs Fc	−0.605 ± 0.007	effect on infection (trophozoites in small intestine) at 2 mg/kg (G. lamblia GS/M): no significant activity; effect on infection (trophozoites in small intestine) at 10 mg/kg (G. lamblia GS/M): no significant activity
Cn1c([N+](=O)[O-])cnc1/C=C/c1ccccc1Cl [compound 13, 2-[(E)-2-(2-Chlorophenyl)vinyl]-1-methyl-5-nitro-1H-imidazole]	−1.486 ± 0.004 V vs Fc		
Cn1c([N+](=O)[O-])cnc1/C=C/c1cccc(Cl)c1 [compound 14, 2-[(E)-2-(3-Chlorophenyl)vinyl]-1-methyl-5-nitro-1H-imidazole]	−1.492 ± 0.002 V vs Fc		
Cn1c([N+](=O)[O-])cnc1/C=C/c1ccc(Cl)cc1 [compound 15, 2-[(E)-2-(4-Chlorophenyl)vinyl]-1-methyl-5-nitro-1H-imidazole]	−1.503 ± 0.001 V vs Fc	−0.584 ± 0.001	
Cn1c([N+](=O)[O-])cnc1/C=C/c1ccc(Cl)cc1Cl [compound 16, 2-[(E)-2-(2,4-Dichlorophenyl)vinyl]-1-methyl-5-nitro-1H-imidazole]	−1.469 ± 0.002 V vs Fc		E1/2 more positive than Mz [1]: ~ 90 mV
Cn1c([N+](=O)[O-])cnc1/C=C/c1cccc(I)c1 [compound 18, 2-[(E)-2-(3-Iodophenyl)vinyl]-1-methyl-5-nitro-1H-imidazole]	−1.494 ± 0.004 V vs Fc		IC50 (HeLa cells): 31.6 µM

Molecule	E1/2 in DMSO (half-wave potential, 0/−1 reduction), mean ± SE [1]	Ep in water (peak potential), mean ± SE [2] [V vs SCE]	other results
COc1cccc(/C=C/c2ncc([N+](=O)[O-])n2C)c1 [compound 20, 2-[(E)-2-(3-Methoxyphenyl)vinyl]-1-methyl-5-nitro-1H-imidazole]	−1.580 ± 0.007 V vs Fc	−0.763 ± 0.001	
Cn1c([N+](=O)[O-])cnc1/C=C/c1ccc(OC(F)(F)F)cc1 [compound 21, 1-Methyl-5-nitro-2-{(E)-2-[4-(trifluoromethoxy)phenyl]vinyl}-1H-imidazole]	−1.487 ± 0.001 V vs Fc		
COc1ccc(/C=C/c2ncc([N+](=O)[O-])n2C)c(OC)c1OC [compound 22, 1-Methyl-5-nitro-2-[(E)-2-(2,3,4-trimethoxyphenyl)vinyl]-1H-imidazole]	−1.584 ± 0.005 V vs Fc	−0.757 ± 0.003	
CCOC(OCC)c1ccc(/C=C/c2ncc([N+](=O)[O-])n2C)cc1 [compound 23, 2-{(E)-2-[4-(Diethoxymethyl)phenyl]vinyl}-1-methyl-5-nitro-1H-imidazole]	−1.518 ± 0.003 V vs Fc		IC50 (HeLa cells): 97.7 µM
Cn1c([N+](=O)[O-])cnc1/C=C/c1ccccc1-c1ccccc1 [compound 24, 2-[(E)-2-Biphenyl-2-ylvinyl]-1-methyl-5-nitro-1H-imidazole]	−1.512 ± 0.001 V vs Fc		
Cn1c([N+](=O)[O-])cnc1/C=C/c1cccc2ccccc12 [compound 25, 1-Methyl-2-[(E)-2-(1-naphthyl)vinyl]-5-nitro-1H-imidazole]	−1.502 ± 0.004 V vs Fc		selectivity ratio, IC50/EC50 [3]: 1,000
Cn1c([N+](=O)[O-])cnc1/C=C/c1ccc2ccccc2c1 [compound 26, 1-Methyl-2-[(E)-2-(2-naphthyl)vinyl]-5-nitro-1H-imidazole]	−1.509 ± 0.001 V vs Fc		selectivity ratio, IC50/EC50 [3]: 1,622; IC50 (HeLa cells): 97.7 µM
Cn1c([N+](=O)[O-])cnc1/C=C/c1cccs1 [compound 30, 1-Methyl-5-nitro-2-[(E)-2-(2-thienyl)vinyl]-1H-imidazole]	−1.528 ± 0.003 V vs Fc	−0.658 ± 0.001	selectivity ratio, IC50/EC50 [3]: 1,122
Cn1c([N+](=O)[O-])cnc1/C=C/c1ccsc1 [compound 31, 1-Methyl-5-nitro-2-[(E)-2-(3-thienyl)vinyl]-1H-imidazole]	−1.508 ± 0.002 V vs Fc	−0.595 ± 0.001	selectivity ratio, IC50/EC50 [3]: >1,023
Cn1c([N+](=O)[O-])cnc1C(Br)C(Br)c1ccc(Br)cc1 (stereo not shown) [compound 33, 2-[1,2-Dibromo-2-(4-bromophenyl)ethyl]-1-methyl-5-nitro-1H-imidazole]	−1.493 ^d ± 0.004 V vs Fc		
Cc1ccc(C(O)C(O)c2ncc([N+](=O)[O-])n2C)cc1 (stereo not shown) [compound 34, 1-(1-Methyl-5-nitro-1H-imidazol-2-yl)-2-(4-methylphenyl)-ethane-1,2-diol]	−1.557 ± 0.001 V vs Fc		
Cn1c([N+](=O)[O-])cnc1C(O)C(O)c1ccc(Br)cc1 (stereo not shown) [compound 35, 1-(4-Bromophenyl)-2-(1-methyl-5-nitro-1H-imidazol-2-yl)-ethane-1,2-diol]	−1.544 ± 0.001 V vs Fc		
CC(=O)OC(c1ccc(Br)cc1)C(OC(C)=O)c1ncc([N+](=O)[O-])n1C (stereo not shown) [compound 37, 1-(1-Methyl-5-nitro-1H-imidazol-2-yl)-2-(4-bromophenyl)-ethane-1,2-diyl Diacetate]			IC50 (HeLa cells): 97.7 µM
Cn1c([N+](=O)[O-])cnc1CCc1ccccc1 [compound 40, 1-Methyl-5-nitro-2-(2-phenylethyl)-1H-imidazole]	−1.593 ± 0.002 V vs Fc		
Cc1ccc(CCc2ncc([N+](=O)[O-])n2C)cc1 [compound 41, 1-Methyl-2-[2-(4-methylphenyl)ethyl]-5-nitro-1H-imidazole]	−1.592 ± 0.003 V vs Fc		
Cn1c([N+](=O)[O-])cnc1CCc1ccc(Br)cc1 [compound 42, 2-[2-(4-Bromophenyl)ethyl]-1-methyl-5-nitro-1H-imidazole]	−1.592 ± 0.003 V vs Fc		IC50 (HeLa cells): 97.7 µM
